# “Also recorded” adds a separate entry of the source. Marks after values point to notes of the source that are not given here.
# Assays:
# [1] = system: human endometrial Ishikawa carcinoma cells; details: cited from earlier work
# rat = test: biochemical parameters of bone metabolism in rats treated with DHEA and/or EM-800; assay type: in vivo; details: for SERUM TALP (alkaline phosphatase) / URINE CALCIUM / URINE HP/Cr (hydroxyproline/creatinine ratio) / URINE PHOSPHORUS: DHEA 10 mg percutaneously, EM-800 75 μg orally, once daily; for decrease of urinary hydroxyproline/creatinine ratio, marker of bone resorption / increase of serum alkaline phosphatase activity, marker of bone formation: versus control
# From the text: Data are expressed as the means±SEM. **: P<0.01 experimental versus respective control.
# It is particularly important to indicate that the combination of DHEA and EM-800 exerts unexpected beneficial effects on important biochemical parameters of bone metabolism. […] Moreover, no effect of DHEA alone could be detected on daily urinary calcium or phosphorus excretion (Luo, Sourla et al. 1997). EM-800, on the other hand, decreased the urinary hydroxyproline/creatinine ratio by 48% while, similarly to DHEA, no effect of EM-800 was seen on urinary calcium or phosphorus excretion. EM-800, moreover, had no effect on serum alkaline phosphatase activity, a marker of bone formation while DHEA increased the value of the parameter by about 75% (Luo, Sourla et al. 1997) (Table 2).
# Thus, the addition of DHEA to EM-800 increases by 50% of the inhibitory effect of EM-800 on bone reabsorption.
# ovariectomized rats = test: bone histomorphometry after 12-month treatment of ovariectomized rats; assay type: in vivo, rat; details: 12 months
# Method: (§1) FIG. 6 is a bar graph comparing the effect of 12-month treatment with dehydroepiandrosterone (DHEA) alone or in combination with Flutamide or EM-800 on trabecular bone volume in ovariectomized rats. Intact animals are added as additional controls. Data are presented as mean±SEM **p<0.01 versus OVX Control.
# as §1, with “7” for “6”, “number of” for “bone volume in”
# Note the reduced amount of trabecular bone (T) in ovariectomized control animals (B), and the significant increase in trabecular bone volume (T) induced after DHEA administration (C). […] Modified trichrome Masson-Goldner, magn.×80. T: Trabeculae, GP: Growth Plate.
# Importantly, the combination of EM-800 and DHEA in ovariectomized rats treated for 12 months had beneficial effects on bone morphometry. Trabecular bone volume is particularly important for bone strength and to prevent bone fractures.
# 60- to 70-year-old women = details: cited from earlier work
# [2] = system: postmenopausal women suffering from vaginal atrophy; details: daily intravaginal, 3 months; cited from earlier work
# solid state stability = assay type: physicochemical
# postmenopausal women = test: serum lipids in postmenopausal women given oral EM-800; assay type: in vivo, human
# ovariectomized rat = details: rat after ovariectomy; cited from earlier work
smiles,measurement,setting,value
"COc1ccc(-c2sc3cc(O)ccc3c2Oc2ccc(OCCN3CCCCC3)cc2)cc1.Cl [Arzoxifene, 6-hydroxy-3-[4-[2-(1-piperidinyl)ethoxy]phenoxyl]-2-(4-methoxyphenyl)benzo[b]thiophene hydrochloride]",effect on estrogen-sensitive parameter alkaline phosphatase,[1],"stimulate, to various degrees"
"C[C@]12CC[C@H](O)CC1=CC[C@@H]1[C@@H]2CC[C@]2(C)C(=O)CC[C@@H]12 [DHEA, dehydroepiandrosterone]",effect on daily urinary calcium or phosphorus excretion,rat,no effect
same,SERUM TALP (alkaline phosphatase),rat,198.38 ± 30.76* IU/L
same,URINE CALCIUM,rat,25.87 ± 3.54 μmol/24 h/100 g
same,URINE HP/Cr (hydroxyproline/creatinine ratio),rat,14.02 ± 1.59 μmol/mmol
same,URINE PHOSPHORUS,rat,151.41 ± 14.57 μmol/24 h/100 g
same,"decrease of urinary hydroxyproline/creatinine ratio, marker of bone resorption",rat,did not affect; also recorded: did not show any effect
same,"increase of serum alkaline phosphatase activity, marker of bone formation",rat,about 75%
same,increase in trabecular bone number compared to ovariectomized controls,ovariectomized rats,137%
same,trabecular bone number,ovariectomized rats,1.27±0.1 per mm
same,trabecular bone volume of the tibia,ovariectomized rats,11.9±0.6%
same,abdominal fat measurements,60- to 70-year-old women; 12 months,no significant change
same,body weight,60- to 70-year-old women; 12 months,no change
same,decrease in fasting plasma insulin levels,60- to 70-year-old women; 12 months,17%
same,decrease in plasma bone alkaline phosphatase,60- to 70-year-old women; 12 months,22%
same,decrease in subcutaneous skin fold thickness,60- to 70-year-old women; 12 months,9.8%
same,decrease in urinary hydroxyproline,60- to 70-year-old women; 12 months,38%
same,decrease of fasting plasma glucose,60- to 70-year-old women; 12 months,12%
same,"decrease of femoral fat (midthigh, computed tomography)",60- to 70-year-old women; 12 months,3.8%
same,increase in bone mass density at the hip,60- to 70-year-old women; 12 months,2.3%
same,increase in bone mass density at the hip Ward's triangle,60- to 70-year-old women; 12 months,3.75%
same,increase in bone mass density at the lumbar spine level,60- to 70-year-old women; 12 months,2.2%
same,"increase in femoral muscular area (midthigh, computed tomography)",60- to 70-year-old women; 12 months,3.5%
same,increase over control in plasma osteocalcin,60- to 70-year-old women; 12 months,135%
same,plasma triglycerides,60- to 70-year-old women; 12 months,not affected
same,endometrium histology,"60- to 70-year-old women; after 12 months, all women",remained completely atrophic
same,increase in index of sebum secretion,60- to 70-year-old women; after 12 months,79%
same,women with stimulated vaginal epithelium maturation,60- to 70-year-old women; women with a maturation value of zero at onset of therapy,8 out of 10
same,circulating estradiol or testosterone,[2],no change
same,"domains of sexual dysfunction (desire, arousal, orgasm and pleasure)",[2],significant improvement
same,symptoms and signs of vaginal atrophy,[2],rapid and very marked improvement
"CC/C(=C(/c1ccc(OCCN(C)C)cc1)c1cccc(O)c1)c1ccccc1 [Droloxifene, (E)-3-[1-[4-[2-(Dimethylamino)ethoxy]phenyl]-2-phenyl-1-butenyl]phenol]",effect on estrogen-sensitive parameter alkaline phosphatase,[1],"stimulate, to various degrees"
"CC1=C(c2ccc(O)cc2)[C@H](c2ccc(OCCN3CCCCC3)cc2)Oc2cc(O)ccc21.Cl [EM-652.HCl, (S)-(+)-7-hydroxy-3-(4′-hydroxyphenyl)-4-methyl-2-(4″-(2′″-piperidinoethoxy)phenyl)-2H-1 benzopyran hydrochloride]",solid state stability,solid state stability,good solid state stability
"CC1=C(c2ccc(OC(=O)C(C)(C)C)cc2)[C@H](c2ccc(OCCN3CCCCC3)cc2)Oc2cc(OC(=O)C(C)(C)C)ccc21 [EM-800, (S)-(+)-4-[7-(2,2-dimethyl-1-oxopropoxy)-4-methyl-2-[4-[2-(1-piperidinyl)-ethoxy]phenyl]-2H-1-benzopyran-3-yl]-phenyl 2,2-dimethylpropanoate]",effect on daily urinary calcium or phosphorus excretion,rat,no effect
same,SERUM TALP (alkaline phosphatase),rat,114.11 ± 11.26 IU/L
same,URINE CALCIUM,rat,17.44 ± 4.5 μmol/24 h/100 g
same,URINE HP/Cr (hydroxyproline/creatinine ratio),rat,6.81 ± 0.84** μmol/mmol
same,URINE PHOSPHORUS,rat,102.03 ± 25.13 μmol/24 h/100 g
same,"decrease of urinary hydroxyproline/creatinine ratio, marker of bone resorption",rat,48%
same,"increase of serum alkaline phosphatase activity, marker of bone formation",rat,no effect
same,decrease in total serum cholesterol,"postmenopausal women; daily oral dose of 5, 10, 20 and 40 mg for 2 weeks",10%
same,decrease in serum triglyceride levels,"postmenopausal women; daily oral dose of 5, 10, 20 and 40 mg, at 1 week",15%
same,antiestrogenic activity in Ishikawa cells,[1],pure antiestrogenic activity
same,dose at which maximal effect on bone resorption is achieved,ovariectomized rat,0.01 mg/kg
"CC/C(=C(\c1ccc(I)cc1)c1ccc(OCCN2CCCC2)cc1)c1ccccc1 [Idoxifene, (E)-1-[2-[4-[1-(4-Iodophenyl)-2-phenyl-1-butenyl]phenoxy]ethyl]pyrrolidine]",effect on estrogen-sensitive parameter alkaline phosphatase,[1],"stimulate, to various degrees"
"OCCOc1ccc(/C(=C(/CCCl)c2ccccc2)c2ccccc2)cc1 [Ospemifene, (Z)-2-[4-(4-chloro-1,2-diphenyl-1-butenyl)phenoxyl]ethanol]",effect on estrogen-sensitive parameter alkaline phosphatase,[1],"stimulate, to various degrees"
"Cl.O=C(c1ccc(OCCN2CCCCC2)cc1)c1c(-c2ccc(O)cc2)sc2cc(O)ccc12 [Raloxifene, [2-(4-hydroxyphenyl)-6-hydroxybenzo[b]thien-3-yl][4-[2-(1-piperidinyl)ethoxy]phenyl]-methanone hydrochloride]",effect on estrogen-sensitive parameter alkaline phosphatase,[1],"stimulate, to various degrees"
same,dose at which maximal effect on bone resorption is achieved,ovariectomized rat,0.1 mg/kg
"CC/C(=C(\c1ccccc1)c1ccc(OCCN(C)C)cc1)c1ccccc1 [Tamoxifen, (Z)-2-[4-(1,2-diphenyl-1-butenyl)phenoxy]-N,N-dimethylethanamine]",effect on estrogen-sensitive parameter alkaline phosphatase,[1],"stimulate, to various degrees"
"CN(C)CCOc1ccc(/C(=C(/CCCl)c2ccccc2)c2ccccc2)cc1 [Toremifene, (Z)-2-[4-(4-Chloro-1,2-diphenyl-1-butenyl)phenoxy]-N,N-dimethylethanamine]",effect on estrogen-sensitive parameter alkaline phosphatase,[1],"stimulate, to various degrees"

# Source: patent publication US11576891B2, “Methods of treating or preventing estrogen-related diseases” (ENDORECHERCHE, INC., priority 2010, dated 2023)
